Counter-ions that a name gives are not always drawn.
Experiments:
Assay type in all cases: biochemical
AKT2 = target: T1, AKT2 (Homo sapiens, UniProt P31751); experiment: AKT Kinase Assay (IMAP fluorescent polarisation) vs AKT2; settings: activated AKT2, FAM Crosstide substrate
T1 construct: purchased SignalChem
Experimental: (§1) Testing of the compounds was performed using an AKT Kinase Assay:
(§2) Activated AKT isoforms 1, 2 and 3 were assayed utilising a 5′ FAM Crosstide (Seq. GRPRTSSFAEG-OH). The extent of kinase phosphorylation was determined by fluorescent polarisation using IMAP progressive binding reagent, which introduces binding beads which allow the reagent to specifically bind to phosphate residues via covalent co-ordination complex bonds.
(§3) iMAP binding solution stops Crosstide/kinase interaction and specifically binds phosphorylated substrates. The degree of phosphorylation is determined by fluorescent polarisation (excitation 485 nm; emission 528 nm) or the reduction in speed of rotation of the excited substrate.
(§4) The following materials were used in the assay: • a) Activated AKT isoforms (SignalChem.) dissolved in Complete Reaction buffer at a pre-determined concentration selected so that the assay was carried out in the linear range. • b) AKT substrate peptide: FAM Crosstide (R7110) Molecular Devices, diluted in complete reaction buffer. • c) iMAP Progressive Screening Express Kit (R8127) Molecular Devices • d) Complete Reaction Buffer containing 0.1% BSA, 10 mM Tris-HCl, 10 mM MgCl2, 0.05% NaN3 and 0.01% phosphate free BSA, 1 mM DTT • e) Progressive Binding Solution containing 75% Buffer A, 25% Buffer B and low volume Binding Reagent which contains the binding entity for the assay • f) ATP diluted in complete reaction buffer • g) Black polystyrene 384 well assay plates (Nunc). • h) Biotek Synergy 4 Hybrid Plate reader.
(§5) 50 μl of test compound was dissolved in DMSO (Sigma Aldrich) and serially diluted in complete reaction buffer to give a fourteen point half log dose response and plated into 384 well black plates. The compound was incubated at room temperature with activated AKT isoform ([…]) at the pre-determined concentration, for 45 minutes.
(§6) […] of ATP solution mixed with 2.5 μl of AKT substrate peptide (FAM Crosstide (R7110) Molecular Devices) were dispensed into each well and the plate centrifuged at 1000 rpm for 20 seconds to ensure homogenous mixing of reagents. The reaction mix was incubated in the dark for one hour at room temperature.
(§7) The kinase reaction was stopped by the addition of Progressive Binding Solution and the mixture allowed to equilibrate for one hour in the dark, at room temperature.
(§8) The fluorescent polarisation generated in each well was determined using a […] Synergy 4 Hybrid plate reader. In brief, each reaction solution was excited at 485 nm with the emission measured at 528 nm in both the parallel and perpendicular pathway.
(§9) The polarisation value generated in each well was calculated by Gen5 software (Biotek) and the % inhibition of kinase activity compared to vehicle control was calculated via GraphPad Prism. IC50 values for each compound were calculated by non-linear regression analysis using Prism software.
(§10) All plates were internally controlled by two methods. Firstly, by calculating the signal:noise ratio; based on kinase polarisation without inhibitor and polarisation generated by complete reaction buffer in the absence of activated kinase. Secondly by determining IC50 values generated by known inhibitors of the AKT isoforms.

AKT3 = target: T2, AKT3 (Homo sapiens, UniProt Q9Y243); experiment: AKT Kinase Assay (IMAP fluorescent polarisation) vs AKT3; settings: activated AKT3, FAM Crosstide substrate
T2 construct: purchased SignalChem
T2 sequence (Q9Y243 whole entry): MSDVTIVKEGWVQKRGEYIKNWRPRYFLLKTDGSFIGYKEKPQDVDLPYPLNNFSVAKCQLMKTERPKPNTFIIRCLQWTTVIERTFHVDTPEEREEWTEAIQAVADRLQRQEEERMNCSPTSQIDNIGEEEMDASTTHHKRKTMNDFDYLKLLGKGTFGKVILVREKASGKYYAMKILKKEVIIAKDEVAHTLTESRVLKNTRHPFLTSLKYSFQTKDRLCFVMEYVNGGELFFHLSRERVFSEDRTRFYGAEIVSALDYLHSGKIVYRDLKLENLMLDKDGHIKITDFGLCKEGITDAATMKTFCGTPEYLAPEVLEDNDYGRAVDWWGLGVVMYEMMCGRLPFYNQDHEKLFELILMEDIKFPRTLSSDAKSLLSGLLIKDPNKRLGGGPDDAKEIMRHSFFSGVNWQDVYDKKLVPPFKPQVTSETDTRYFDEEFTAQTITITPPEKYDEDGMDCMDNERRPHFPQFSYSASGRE
Experimental: as §1, §2, §3, §4, §5, §6, §7, §8, §9, §10

AKT1 = target: T3, AKT1 (Homo sapiens, UniProt P31749); experiment: AKT Kinase Assay (IMAP fluorescent polarisation) vs AKT1; settings: activated AKT1, FAM Crosstide substrate
T3 construct: purchased SignalChem
T3 sequence (P31749 whole entry): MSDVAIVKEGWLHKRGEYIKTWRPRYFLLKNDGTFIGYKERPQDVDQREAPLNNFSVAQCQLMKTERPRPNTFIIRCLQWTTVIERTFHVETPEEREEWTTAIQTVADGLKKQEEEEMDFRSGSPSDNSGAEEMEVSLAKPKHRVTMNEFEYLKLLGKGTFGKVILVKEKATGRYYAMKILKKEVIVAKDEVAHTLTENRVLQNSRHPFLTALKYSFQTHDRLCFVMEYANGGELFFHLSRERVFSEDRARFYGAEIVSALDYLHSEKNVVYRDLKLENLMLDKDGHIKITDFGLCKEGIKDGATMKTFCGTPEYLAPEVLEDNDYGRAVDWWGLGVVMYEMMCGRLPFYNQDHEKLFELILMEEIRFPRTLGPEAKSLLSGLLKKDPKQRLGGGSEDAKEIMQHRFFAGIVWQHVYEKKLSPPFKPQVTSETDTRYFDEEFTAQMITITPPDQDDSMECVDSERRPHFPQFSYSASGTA
Experimental: as §1, §2, §3, §4, §5, §6, §7, §8, §9, §10

T1 sequence (P31751 whole entry): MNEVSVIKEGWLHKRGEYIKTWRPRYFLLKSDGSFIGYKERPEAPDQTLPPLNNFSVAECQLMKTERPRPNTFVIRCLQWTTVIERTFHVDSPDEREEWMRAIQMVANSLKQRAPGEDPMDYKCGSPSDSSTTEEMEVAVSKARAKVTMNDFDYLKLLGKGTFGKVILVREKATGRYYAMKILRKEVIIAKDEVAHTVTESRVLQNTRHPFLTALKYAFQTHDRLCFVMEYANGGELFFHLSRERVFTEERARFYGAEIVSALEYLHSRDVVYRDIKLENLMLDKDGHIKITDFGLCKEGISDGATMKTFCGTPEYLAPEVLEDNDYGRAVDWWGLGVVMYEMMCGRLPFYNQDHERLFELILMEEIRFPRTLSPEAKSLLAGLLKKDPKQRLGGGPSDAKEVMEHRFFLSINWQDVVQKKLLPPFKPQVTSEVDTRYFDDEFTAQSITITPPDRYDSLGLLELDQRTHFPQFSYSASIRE

Row | IC50 (AKT2) [nM] | IC50 (AKT3) [nM] | IC50 (AKT1) [nM] | Compound
1 | 100 to 1000 | 1000 to 10000 | 100 to 1000 | COc1nc(N2CC[C@H](O)C2)nc2oc(-c3ccc(C4(N)CCC4)cc3)c(-c3ccccc3)c12 [Example 35, (S)-1-(6-(4-(1-Aminocyclobutyl)phenyl)-4-methoxy-5-phenylfuro[2,3-d]pyrimidin-2-yl)pyrrolidin-3-ol]
2 | 100 to 1000 | > 10000 | ≤ 100 | COc1nc(NCCO)nc2oc(-c3ccc(C4(N)CCC4)cc3)c(-c3ccccc3)c12 [Example 38, 2-((6-(4-(1-Aminocyclobutyl)phenyl)-4-methoxy-5-phenylfuro[2,3-d]pyrimidin-2-yl)amino)ethanol]
3 | 100 to 1000 | 1000 to 10000 | 100 to 1000 | COc1nc(N2CCC(N)CC2)nc2oc(-c3ccc(C4(N)CCC4)cc3)c(-c3ccccc3)c12 [Example 39, 1-(6-(4-(1-Aminocyclobutyl)phenyl)-4-methoxy-5-phenylfuro[2,3-d]pyrimidin-2-yl)piperidin-4-amine]
4 | 100 to 1000 | > 10000 | 100 to 1000 | COc1nc(N2CCC(O)CC2)nc2oc(-c3ccc(C4(N)CCC4)cc3)c(-c3ccccc3)c12 [Example 40, 1-(6-(4-(1-Aminocyclobutyl)phenyl)-4-methoxy-5-phenylfuro[2,3-d]pyrimidin-2-yl)piperidin-4-ol]
5 | 100 to 1000 | > 10000 | ≤ 100 | COc1nc(NCCCO)nc2oc(-c3ccc(C4(N)CCC4)cc3)c(-c3ccccc3)c12 [Example 41, 3-((6-(4-(1-Aminocyclobutyl)phenyl)-4-methoxy-5-phenylfuro[2,3-d]pyrimidin-2-yl)amino)propan-1-ol]
6 | 100 to 1000 | > 10000 | 100 to 1000 | COCCNc1nc(OC)c2c(-c3ccccc3)c(-c3ccc(C4(N)CCC4)cc3)oc2n1 [Example 42, 6-(4-(1-Aminocyclobutyl)phenyl)-4-methoxy-N-(2-methoxyethyl)-5-phenylfuro[2,3-d]pyrimidin-2-amine]
7 | 100 to 1000 | 1000 to 10000 | 100 to 1000 | COc1nc(NCCN)nc2oc(-c3ccc(C4(N)CCC4)cc3)c(-c3ccccc3)c12 [Example 43, N^1-(6-(4-(1-Aminocyclobutyl)phenyl)-4-methoxy-5-phenylfuro[2,3-d]pyrimidin-2-yl)ethane-1,2-diamine]
8 | 100 to 1000 | > 10000 | ≤ 100 | COc1nc(-n2ccnc2)nc2oc(-c3ccc(C4(N)CCC4)cc3)c(-c3ccccc3)c12 [Example 44, 1-(4-(2-(1H-Imidazol-1-yl)-4-methoxy-5-phenylfuro[2,3-d]pyrimidin-6-yl)phenyl)cyclobutanamine]
9 | 100 to 1000 | 1000 to 10000 | 100 to 1000 | COc1nc(N2CCN(C(C)=O)CC2)nc2oc(-c3ccc(C4(N)CCC4)cc3)c(-c3ccccc3)c12 [Example 45, 1-(4-(6-(4-(1-Aminocyclobutyl)phenyl)-4-methoxy-5-phenylfuro[2,3-d]pyrimidin-2-yl)piperazin-1-yl)ethanone]
10 | 100 to 1000 | 100 to 1000 | 100 to 1000 | CCOc1nc(N2CCNCC2)nc2oc(-c3ccc(C4(N)CCC4)cc3)c(-c3ccccc3)c12 [Example 46, 1-(4-(4-Ethoxy-5-phenyl-2-(piperazin-14)furo[2,3-d]pyrimidin-6-yl)phenyl)cyclobutanamine, HCl]
11 | 1000 to 10000 | > 10000 | 1000 to 10000 | COc1nc(N2CCCCC2)nc2oc(-c3ccc(C4(N)CCC4)cc3)c(-c3ccccc3)c12 [Example 47, 1-(4-(4-Methoxy-5-phenyl-2-(piperidin-1-yl)furo[2,3-d]pyrimidin-6-yl)phenyl)cyclobutanamine]
12 | 100 to 1000 | 100 to 1000 | ≤ 100 | COc1nc(NC(C)=O)nc2oc(-c3ccc(C4(N)CCC4)cc3)c(-c3ccccc3)c12 [Example 48, N-(6-(4-(1-Aminocyclobutyl)phenyl)-4-methoxy-5-phenylfuro[2,3-d]pyrimidin-2-yl)acetamide]
13 | 100 to 1000 | > 10000 | ≤ 100 | COc1nc(OC)c2c(-c3ccccc3)c(-c3ccc(C4(N)CCC4)cc3)oc2n1 [Example 49, 1-(4-(2,4-Dimethoxy-5-phenylfuro[2,3-d]pyrimidin-6-yl)phenyl)cyclobutanamine]
14 | 100 to 1000 | > 10000 | 1000 to 10000 | NC1CCN(c2ncc3c(-c4ccccc4)c(-c4ccc(C5(N)CCC5)cc4)oc3n2)CC1 [Example 50, 1-(6-(4-(1-Aminocyclobutyl)phenyl)-5-phenylfuro[2,3-d]pyrimidin-2-yl)piperidin-4-amine]
15 | 100 to 1000 | > 10000 | 100 to 1000 | NC1(c2ccc(-c3oc4nc(NCCO)ncc4c3-c3ccccc3)cc2)CCC1 [Example 51, 2-((6-(4-(1-Aminocyclobutyl)phenyl)-5-phenylfuro[2,3-d]pyrimidin-2-yl)amino)ethanol]
16 | 100 to 1000 | > 10000 | 1000 to 10000 | NC1(c2ccc(-c3oc4nc(N5CCOCC5)ncc4c3-c3ccccc3)cc2)CCC1 [Example 52, 1-(4-(2-Morpholino-5-phenylfuro[2,3-d]pyrimidin-6-yl)phenyl)cyclobutanamine]
17 | 100 to 1000 | > 10000 | 100 to 1000 | NC1(c2ccc(-c3oc4nc(N5CCNCC5)ncc4c3-c3ccccc3)cc2)CCC1 [Example 53, 1-(4-(5-Phenyl-2-(piperazin-1-yl)furo[2,3-d]pyrimidin-6-yl)phenyl)cyclobutanamine]
18 | 100 to 1000 | > 10000 | ≤ 100 | NC1(c2ccc(-c3oc4nc(OCCO)ncc4c3-c3ccccc3)cc2)CCC1 [Example 54, 2-((6-(4-(1-Aminocyclobutyl)phenyl)-5-phenylfuro[2,3-d]pyrimidin-2-yl)oxy)ethanol]
19 | 100 to 1000 | > 10000 | ≤ 100 | CNc1ncc2c(-c3ccccc3)c(-c3ccc(C4(N)CCC4)cc3)oc2n1 [Example 55, 6-(4-(1-Aminocyclobutyl)phenyl)-N-methyl-5-phenylfuro[2,3-d]pyrimidin-2-amine]
20 | ≤ 100 | 1000 to 10000 | 100 to 1000 | Cn1c(N2CC[C@H](O)C2)nc2oc(-c3ccc(C4(N)CCC4)cc3)c(-c3ccccc3)c2c1=O [Example 56, (S)-6-(4-(1-aminocyclobutyl)phenyl)-2-(3-hydroxypyrrolidin-1-yl)-3-methyl-5-phenylfuro[2,3-d]pyrimidin-4(3H)-one]
21 | ≤ 100 | 1000 to 10000 | 100 to 1000 | Cn1c(N2CC[C@@H](O)C2)nc2oc(-c3ccc(C4(N)CCC4)cc3)c(-c3ccccc3)c2c1=O [Example 57, (R)-6-(4-(1-Aminocyclobutyl)phenyl)-2-(3-hydroxypyrrolidin-1-yl)-3-methyl-5-phenylfuro[2,3-d]pyrimidin-4(3H)-one]
22 | 100 to 1000 | 1000 to 10000 | 100 to 1000 | Cn1c(N2CCCC2)nc2oc(-c3ccc(C4(N)CCC4)cc3)c(-c3ccccc3)c2c1=O [Example 58, 6-(4-(1-Aminocyclobutyl)phenyl)-3-methyl-5-phenyl-2-(pyrrolidin-1-yl)furo[2,3-d]pyrimidin-4(3H)-one hydrochloride]
23 | ≤ 100 | 1000 to 10000 | 100 to 1000 | Cn1c(N2CCC(O)CC2)nc2oc(-c3ccc(C4(N)CCC4)cc3)c(-c3ccccc3)c2c1=O [Example 59, 6-(4-(1-Aminocyclobutyl)phenyl)-2-(4-hydroxypiperidin-1-yl)-3-methyl-5-phenylfuro[2,3-d]pyrimidin-4(3H)-one hydrochloride]
24 | 100 to 1000 | > 10000 | 1000 to 10000 | CNC(=O)CNc1nc2oc(-c3ccc(C4(N)CCC4)cc3)c(-c3ccccc3)c2c(=O)n1C [Example 60, 2-((6-(4-(1-Aminocyclobutyl)phenyl)-3-methyl-4-oxo-5-phenyl-3,4-dihydrofuro[2,3-d]pyrimidin-2-yl)amino)-N-methylacetamide hydrochloride]
